{"source": "patent US20220226231A1", "about": "“AGRIMONY EXTRACT AS ANTI-POLLUTION AGENT” (PIERRE FABRE DERMO-COSMETIQUE, priority 2019, published 2022)", "test_system": "reconstructed human epithelium (RHE)", "experiment": "Anti-pollution activity: MDA production (lipid peroxidation) in ozone-stressed reconstructed human epithelium", "assay_type": "cell-based", "settings": "Trolox 1 mg/mL", "text": "The objective of this study is to evaluate the antioxidant, detoxifying and ozone-protective activity of an agrimony extract, following exposure to ozone in a reconstructed human epithelium (RHE) mimicking the effect of pollution on the skin. Lipids playing a role in epidermal barrier function, such as free fatty acids, cholesterol, triglycerides and ceramides, can be impacted under stress conditions with increased oxidative lipid damage. Direct measurements of lipid peroxidation can be carried out by measuring malondialdehyde (MDA) by gas chromatography techniques combined with mass spectrometry. This compound is naturally present in tissues, where it is a manifestation of oxidative stress. It is derived in particular from the action of reactive oxygen derivatives on polyunsaturated fatty acids. Several conditions are realized in this study: • Negative control: non-stressed RHE; • Positive control: ozone-stressed RHE; • Test with an agrimony extract: ozone-stressed RHE is in contact with the extract (n=3), this test is performed with 3 different concentrations (1, 3 and 10 μg/mL); • Test with a reference compound: ozone-stressed RHE is in contact with the reference compound (Trolox). The agrimony extract is solubilized in water/DMSO, (80/20, v/v). The process is based on lipid oxidation from ozonolysis. […] A protection index is calculated from the stress and control conditions. […]", "data": [{"smiles": "Cc1c(C)c2c(c(C)c1O)CCC(C)(C(=O)O)O2", "note": "(centres unmarked) [Trolox, 3,4-Dihydro-6-hydroxy-2,5,7,8-tetramethyl-2H-1-benzopyran-2-carboxylic acid]", "values": [{"measurement": "PI (%) protection index", "result": 37.6, "unit": "%"}, {"measurement": "PI (%) protection index", "setting": "listed as trolox", "result": 38, "unit": "%"}]}]}
